# Legend:
# [1] = target: T1, VEGF-R2 (Rattus norvegicus, UniProt O08775); experiment: VEGF-R2 Screening Assay; format: biochemical; settings: for inhibition at 1 µM: test concentration of 1 μM, read-out: VEGF-R2 percent inhibition
# T1 construct: polyhistidine (N)
# Method: (§1) A kinase reaction mixture was prepared containing 50 mM Tris-HCl at pH 8, 10 mM, MgCl20.1 mM […], 1 mM DTT, 10 μM ATP, 0.025 μM biotinylated histone-H1 peptide substrate and 0.2 μCuries per well ^33P-γ-ATP (2000-3000 Ci/mmol). 70 μL of the kinase reaction mixture was dispensed into the well of a Streptavidin FlashPlate.
# (§2) Test compound stock in 100% DMSO (1 μL) was added to the wells resulting in a final concentration of 1% DMSO in the reaction with a 100 μL final reaction volume. Each enzyme was diluted in 50 mM Tris-HCl pH=8.0, 0.1% BSA and 30 μL was added to each well to initiate the reaction. The reaction was incubated for one hour at 30° C. At the end of the 1 hr incubation, the reaction was terminated by aspirating the mixture from the plate and washing the wells twice with PBS containing 100 mM EDTA. The biotinylated peptide substrate became immobilized on the Flashplate^198 and the incorporation of ^33P-γ-ATP was measured by reading the plate on a scintillation counter. Inhibition of the enzymatic activity was measured by observing a reduced amount of ^33P-γ-ATP incorporated into the immobilized peptide.
# The VEGF-R2 enzyme is a fusion protein containing a polyhistidine tag at the N terminus followed by amino acids 786 to 1343 of the rat VEGF-R2 kinase domain (Accession number U93306). The assay used 150 ng of the N-terminal biotinylated peptide biotin-KHKKLAEGSAYEEV-amide (VEGF-R2) per well.
# (§3) The IC50 was derived according to the procedure described in Example 2. For those compounds without an IC50, the percent inhibition results are shown at a test concentration of 1 μM.
# [2] = target: T2, HER-2 (Homo sapiens, UniProt P04626); experiment: HER-2 Kinase Assay; format: biochemical; settings: for inhibition at 1 µM: test concentration of 1 μM, read-out: HER-2 percent inhibition
# T2 construct: the nucleotides encoding amino acids 679 to 1255 of HER-2; purchased Proqinase (Freiburg, Germany)
# T2 sequence (P04626 679-1255): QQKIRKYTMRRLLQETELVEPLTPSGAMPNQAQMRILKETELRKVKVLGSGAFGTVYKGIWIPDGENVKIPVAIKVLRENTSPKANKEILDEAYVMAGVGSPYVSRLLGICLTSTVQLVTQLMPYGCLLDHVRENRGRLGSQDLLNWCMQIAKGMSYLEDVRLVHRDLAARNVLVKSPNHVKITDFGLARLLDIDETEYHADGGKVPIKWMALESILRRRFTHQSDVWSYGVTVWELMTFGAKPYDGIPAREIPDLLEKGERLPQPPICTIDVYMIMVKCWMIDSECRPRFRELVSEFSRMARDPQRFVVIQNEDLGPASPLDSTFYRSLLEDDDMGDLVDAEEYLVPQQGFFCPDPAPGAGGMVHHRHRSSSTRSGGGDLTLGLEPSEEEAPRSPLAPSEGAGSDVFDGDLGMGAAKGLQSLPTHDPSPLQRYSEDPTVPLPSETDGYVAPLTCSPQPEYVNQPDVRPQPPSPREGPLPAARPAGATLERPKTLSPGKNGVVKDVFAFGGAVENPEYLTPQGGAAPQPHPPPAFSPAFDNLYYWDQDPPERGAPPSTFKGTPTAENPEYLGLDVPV
# Method: HER-2 kinase was purified at Proqinase (Freiburg, Germany) from a construct that consisted of a fusion of GST (Glutathione-S-Transferase), HIS6-Thrombin and the nucleotides encoding amino acids 679 to 1255 of HER-2.
# A mixture of a 10× kinase reaction buffer (600 mM Hepes at pH 7.5, 30 mM Magnesium Chloride, 0.03 mM Sodium Vanadate and 500 μg/mL PEG 20,000), DTT (1.2 mM final from a 10 mM stock), ATP (1 μM from a 10 mM stock), biotinylated polyGluTyr (1.5 ng/μL final from stock of 1 μg/μL prepared by Upstate Biotechnologies, Lake Placid, N.Y.), Manganese Chloride (3 mM final from a 1 M stock), γ-^33P-ATP (10 μCi/μL stock) and water (70 μL/well) was added to each well of a Streptavidin Flashplate (Cat. #SMP103, NEN, Boston, Mass.).
# Test compound stock (1 μL) was added to the appropriate wells. Diluted GSTHER2 kinase (6.7 ng/μL diluted into 50 mM Tris-HCl at pH 8.0 and 0.1% bovine serum albumin) (30 μL) was added (total volume of 200 ng/well) to initiate the reactions.
# The reaction plates were incubated at 30° C. for 1 hr. The reaction was terminated by aspiring the reaction mixture from the plate wells and washing the wells three times with a 1×PBS stop buffer (300 μL) and 100 mM EDTA. After the final wash, the same stop buffer (200 μL) was again added to the wells. The plates were then sealed and read on the TopCount scintillation counter.
# as §3
# [3] = target: T3, Aurora-A (Mus musculus, UniProt P97477); experiment: Aurora-A Screening Assay; format: biochemical, murine; settings: for inhibition at 1 µM: test concentration of 1 μM, read-out: Aurora-A percent inhibition
# T3 construct: followed by the full length protein encoding the murine Aurora-A; polyhistidine (N); made in house; host or cells: sf9 insect cells
# T3 sequence (P97477 1-395): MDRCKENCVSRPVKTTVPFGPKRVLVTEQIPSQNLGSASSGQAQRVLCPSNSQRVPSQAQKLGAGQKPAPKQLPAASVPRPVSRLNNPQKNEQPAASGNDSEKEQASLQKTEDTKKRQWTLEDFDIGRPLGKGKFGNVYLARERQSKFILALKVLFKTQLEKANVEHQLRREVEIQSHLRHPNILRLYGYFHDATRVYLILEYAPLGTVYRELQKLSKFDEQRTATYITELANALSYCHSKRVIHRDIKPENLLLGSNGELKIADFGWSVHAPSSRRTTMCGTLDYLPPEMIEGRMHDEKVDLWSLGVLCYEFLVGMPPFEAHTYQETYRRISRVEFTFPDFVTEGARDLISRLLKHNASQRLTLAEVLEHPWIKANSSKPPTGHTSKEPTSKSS
# Method: as §1, §2
# Aurora-A is a fusion protein containing a polyhistidine tag at the N terminus followed by the full length protein encoding the murine Aurora-A (Accession number GB BC014711) expressed and purified from sf9 insect cells. The assay used 400 ng of the N-terminal biotinylated peptide biotin-GRTGRRNSI-amide (Aurora-A) per well.
# as §3
# [4] = target: T4, EGFR (Homo sapiens, UniProt P00533); experiment: EGFR Kinase Assay; format: biochemical; settings: for inhibition at 2 µM: test concentration of 2 μM, read-out: EGFR percent inhibition
# T4 construct: The intracellular portion of EGFR started at nucleotide 2189 (corresponding to amino acid 667) and ended at the termination codon; made in house; host or cells: Sf9 insect cells (baculovirus)
# T4 sequence (P00533 669-1210 limits assumed): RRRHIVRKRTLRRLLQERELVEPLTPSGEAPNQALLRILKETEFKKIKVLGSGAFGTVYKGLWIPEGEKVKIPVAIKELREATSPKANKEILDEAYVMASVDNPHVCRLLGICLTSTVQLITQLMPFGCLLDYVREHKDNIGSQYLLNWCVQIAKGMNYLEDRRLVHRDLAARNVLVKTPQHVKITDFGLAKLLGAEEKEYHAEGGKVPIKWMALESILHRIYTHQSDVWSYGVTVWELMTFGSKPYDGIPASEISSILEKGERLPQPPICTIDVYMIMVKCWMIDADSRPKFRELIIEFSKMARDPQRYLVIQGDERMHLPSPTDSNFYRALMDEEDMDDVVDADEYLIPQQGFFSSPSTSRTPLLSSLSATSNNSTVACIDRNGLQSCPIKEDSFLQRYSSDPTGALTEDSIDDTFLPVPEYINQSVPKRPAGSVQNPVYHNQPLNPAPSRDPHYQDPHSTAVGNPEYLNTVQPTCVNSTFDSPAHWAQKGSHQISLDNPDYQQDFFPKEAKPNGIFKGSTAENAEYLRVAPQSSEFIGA
# Text: The EGFR kinase used was a fusion of Glutathione-S-Transferase (GST) and a PCR amplified intracellular portion of EGFR (NM_005228). The intracellular portion of EGFR started at nucleotide 2189 (corresponding to amino acid 667) and ended at the termination codon. The portion was PCR amplified with primers that added the lambda attB sequences to each end, recombined into an entry vector, then into a GST destination vector (as described in Gateway Technologies Manual by Invitrogen Corporation, Carlsbad, Calif.).
# The destination vector was recombined in the DH10BAC strain of bacteria to produce a bacmid. The bacmid was transfected into Sf 9 cells and the supernatant containing the baculovirus was collected. The GSTEGFR protein was purified using large cultures of Sf 9 cells infected with stock virus. After an appropriate period of time, the cells were collected and lysed. The GSTEGFR was then purified from the lysate on Glutathione-Sepharose columns (as described by Amersham Biosciences, Buckinghamshire, United Kingdom).
# The EGFR substrate was prepared by biotinylating polyGluTyr (128 mg) (Sigma, St. Louis, Mo.) in a 1×PBS buffer incubated together with a 12-fold molar excess of Sulfo-NHS-LC-Biotin on ice for at least 2 hrs. The free biotin was separated from the biotinylated polyGluTyr on a gel filtration column.
# A mixture of a 10× kinase buffer (500 mM Tris at pH 8.0, 100 mM Magnesium Chloride and 1 mM Sodium Vanadate), DTT (1 mM final from 500 mM stock), ATP (5 μM final from 10 mM stock), biotinylated polyGluTyr (10 μg/μL stock), γ-^33P ATP (10 μCi/μL stock) and water was added to each well (90 μL/well) of a Streptavidin Flashplate (Perkin Elmer, Wellesley, Mass.).
# Test compound in 100% DMSO (2 μL) was added to the appropriate wells. Diluted GSTEGFR (1:300 dilution in 50 mM Tris at pH 8.0 and 0.1% bovine serum albumin) (10 μL) was added to the wells to initiate the reactions.
# The plates were incubated at 30° C. for 1 hr with shaking. The reacted contents were removed and the plates were sequentially washed three times with a 1×PBS stop buffer (300 μL without Magnesium and Calcium) and 100 mM EDTA. After the final wash, the same stop buffer (200 μL) was added to the wells. The plates were then sealed and read on the TopCount scintillation counter.
# Test compounds were assayed in triplicate at 16 concentrations at half-log dilutions starting at 200 uM. A maximum and minimum signal for the assay was determined on each plate. The percent inhibition of a test compound was calculated according to the formula
# For a series of test concentrations, the IC50 was derived by graphing percent inhibition against the log of the concentrations tested for a given compound. For those compounds without an IC50, the percent inhibition results are shown at a test concentration of 2 μM.
# T1 sequence (O08775 786-1343): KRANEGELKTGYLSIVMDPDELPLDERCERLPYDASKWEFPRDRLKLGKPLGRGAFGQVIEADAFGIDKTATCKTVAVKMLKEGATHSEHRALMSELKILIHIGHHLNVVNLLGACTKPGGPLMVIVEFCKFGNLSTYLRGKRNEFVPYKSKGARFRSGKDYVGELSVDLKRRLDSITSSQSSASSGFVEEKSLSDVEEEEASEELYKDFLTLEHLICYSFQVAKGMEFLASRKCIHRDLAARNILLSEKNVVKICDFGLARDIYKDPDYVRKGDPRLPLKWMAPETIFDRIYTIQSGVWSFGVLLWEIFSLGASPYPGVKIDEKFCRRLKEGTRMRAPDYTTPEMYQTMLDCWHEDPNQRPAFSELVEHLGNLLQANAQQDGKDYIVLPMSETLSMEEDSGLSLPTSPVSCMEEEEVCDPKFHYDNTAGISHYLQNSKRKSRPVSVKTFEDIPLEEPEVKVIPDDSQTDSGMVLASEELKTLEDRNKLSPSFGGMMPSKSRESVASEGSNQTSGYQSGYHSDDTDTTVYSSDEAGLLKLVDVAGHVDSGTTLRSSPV
SMILES,inhibition at 1 µM [1],inhibition at 1 µM [2],inhibition at 1 µM [3],inhibition at 2 µM [4],IC50 [1],IC50 [2],IC50 [3],IC50 [4]
"CN(C(=O)c1sc2ncc(C#N)c3c2c1NC(=O)N3c1c(Cl)ccc2c1OCO2)c1ccc(CN2CCOCC2)cc1 [Cpd 29, 5-(5-chloro-benzo[1,3]dioxol-4-yl)-6-cyano-4-oxo-4,5-dihydro-3H-1-thia-3,5,8-triaza-acenaphthylene-2-carboxylic acid methyl-(4-morpholin-4-ylmethyl-phenyl)-amide]",10%,0%,13%,2%,,,,
"N#Cc1cnc2sc(C(=O)Nc3ccc(CN4CCOCC4)cc3)c3c2c1N(c1ccc(Oc2ccccc2)cc1)C(=O)N3 [Cpd 50, 6-cyano-4-oxo-5-(4-phenoxy-phenyl)-4,5-dihydro-3H-1-thia-3,5,8-triaza-acenaphthylene-2-carboxylic acid (4-morpholin-4-ylmethyl-phenyl)-amide]",,,,,> 10000 nM,2200 nM,> 100000 nM,124 nM
"CC(C)(CO)NC(=O)c1sc2ncc(C#N)c3c2c1NC(=O)N3c1c(Cl)ccc2c1OCO2 [Cpd 38, 5-(5-chloro-benzo[1,3]dioxol-4-yl)-6-cyano-4-oxo-4,5-dihydro-3H-1-thia-3,5,8-triaza-acenaphthylene-2-carboxylic acid (2-hydroxy-1,1-dimethyl-ethyl)-amide]",2%,0%,4%,13%,,,,
"N#Cc1cnc2sc(C(=O)Nc3cccnc3)c3c2c1N(c1c(Cl)ccc2c1OCO2)C(=O)N3 [Cpd 36, 5-(5-chloro-benzo[1,3]dioxol-4-yl)-6-cyano-4-oxo-4,5-dihydro-3H-1-thia-3,5,8-triaza-acenaphthylene-2-carboxylic acid pyridin-3-ylamide]",15%,29%,21%,35%,,,,
"Cn1ccc(NC(=O)c2sc3ncc(C#N)c4c3c2NC(=O)N4c2c(Cl)ccc3c2OCO3)n1 [Cpd 39, 5-(5-chloro-benzo[1,3]dioxol-4-yl)-6-cyano-4-oxo-4,5-dihydro-3H-1-thia-3,5,8-triaza-acenaphthylene-2-carboxylic acid (1-methyl-1H-pyrazol-3-yl)-amide]",9%,0%,15%,26%,,,,
"N#Cc1cnc2sc(C(=O)Nc3ccc(CN4CCC(F)CC4)cc3)c3c2c1N(c1c(Cl)ccc2c1OCO2)C(=O)N3 [Cpd 26, 5-(5-chloro-benzo[1,3]dioxol-4-yl)-6-cyano-4-oxo-4,5-dihydro-3H-1-thia-3,5,8-triaza-acenaphthylene-2-carboxylic acid [4-(4-fluoro-piperidin-1-ylmethyl)-phenyl]-amide]",11%,,23%,,,> 1000 nM,,2020 nM
"N#Cc1cnc2sc(C(=O)N3CCCC(CO)C3)c3c2c1N(c1c(Cl)ccc2c1OCO2)C(=O)N3 (centres unmarked) [Cpd 21, 5-(5-chloro-benzo[1,3]dioxol-4-yl)-2-(3-hydroxymethyl-piperidine-1-carbonyl)-4-oxo-4,5-dihydro-3H-1-thia-3,5,8-triaza-acenaphthylene-6-carbonitrile]",,13%,3%,32%,> 100000 nM,,,
"N#Cc1cnc2sc(C(=O)Nc3ccc(CN4CCC(CO)CC4)cc3)c3c2c1N(c1c(Cl)ccc2c1OCO2)C(=O)N3 [Cpd 22, 5-(5-chloro-benzo[1,3]dioxol-4-yl)-6-cyano-4-oxo-4,5-dihydro-3H-1-thia-3,5,8-triaza-acenaphthylene-2-carboxylic acid [4-(4-hydroxymethyl-piperidin-1-ylmethyl)-phenyl]-amide]",,48%,15%,,> 100000 nM,,,567 nM
"N#Cc1cnc2sc(C(=O)Nc3ccc(CN4CCCC(F)C4)cc3)c3c2c1N(c1c(Cl)ccc2c1OCO2)C(=O)N3 (centres unmarked) [Cpd 44, 5-(5-chloro-benzo[1,3]dioxol-4-yl)-6-cyano-4-oxo-4,5-dihydro-3H-1-thia-3,5,8-triaza-acenaphthylene-2-carboxylic acid [4-(3-fluoro-piperidin-1-ylmethyl)-phenyl]-amide]",,,,,> 10000 nM,1100 nM,1100 nM,
"N#Cc1cnc2sc(C(=O)N3CCCC(F)C3)c3c2c1N(c1c(Cl)ccc2c1OCO2)C(=O)N3 (centres unmarked) [Cpd 43, 5-(5-chloro-benzo[1,3]dioxol-4-yl)-2-(3-fluoro-piperidine-1-carbonyl)-4-oxo-4,5-dihydro-3H-1-thia-3,5,8-triaza-acenaphthylene-6-carbonitrile]",,,,,~100000 nM,10600 nM,> 10000 nM,
